Laboratory results as given in ChEMBL document CHEMBL5038635, “Discovery of Salidroside-Derivated Glycoside Analogues as Novel Angiogenesis Agents to Treat Diabetic Hind Limb Ischemia” (J Med Chem, 2022).
In brackets after ≈: the same amount, converted by molar mass. Activity calls are given as the source filed them. The calls are words filed in the database; no cut-off is given here.

Columns and labels:
HUVEC [1] = assay: Induction proliferation of human HUVEC cells assessed as increase in number of EdU-positive cells using conditioned medium of mouse C2C12 cells with silenced HIF-1alpha treated at 30 uM under hyperglycemic condition for 12 hrs followed by hypoxia for 24 hrs by EdU-incorporation assay; format: functional, cell-based; conditions: time 36.0 hrs
[2] = Metabolic stability in rat leg muscle homogenates assessed as compound remaining after 30 min by HPLC analysis; format: ADME, tissue-based, muscle of leg; conditions: read-out: Stability
C2C12 [3] = assay: Upregulation of PIK3CG protein expression in mouse C2C12 cells at 30 uM by Western blot analysis; format: functional, cell-based
C2C12 [4] = assay: Induction proliferation of mouse C2C12 cells at 30 uM pretreated with compound in hyperglycemia condition for 12 hr followed by hypoxia condition for 24 hrs presence of MeOE2 inhibitor by EdU-incorporation assay; format: functional, cell-based; conditions: time 36.0 hrs
Mus musculus [5] = assay: Angiogenic activity in diabetic HLI C57BL/6 mouse model assessed as HIF-1alpha protein expression at 30 mg/kg, im administered for 21 days followed by surgery by Western blot analysis; format: functional, organism-based; conditions: time 21.0 day
[6] = Toxicity in diabetic HLI C57BL/6 mouse model assessed as lung pathology at 30 mg/kg, IM administered by HE staining based assay; format: organism-based; conditions: in vivo
C2C12 [7] = assay: Apoptotic rate in hyperglycemia-treated mouse C2C12 cells assessed as early apoptotic cells at 30 uM by AnnexinV-FITC/PI staining based flow cytometric analysis (reference value: 7.10 %); format: functional
[8] = Toxicity in diabetic HLI C57BL/6 mouse model assessed as kidney pathology at 30 mg/kg, IM administered by HE staining based assay; format: organism-based; conditions: in vivo
C2C12 [9] = assay: Angiogenic activity in mouse C2C12 cells assessed as reversal of hyperglycemia-induced reduction in total cell number at 7.5 uM measured after 24 hrs by EdU-incorporation assay; format: functional, cell-based
C2C12 [10] = assay: Apoptotic rate in hyperglycemia-treated mouse C2C12 cells assessed as late apoptotic cells at 30 uM by AnnexinV-FITC/PI staining based flow cytometric analysis (reference value: 10.44 %); format: functional
C2C12 [11] = assay: Upregulation of EPO protein expression in mouse C2C12 cells at 30 uM by Western blot analysis; format: functional, cell-based
C2C12 [12] = assay: Apoptotic rate in mouse C2C12 cells with silenced HIF-1alpha assessed as viable cells at 30 uM by AnnexinV-FITC/PI staining based FACS analysis (reference value: 86.05 %); format: functional; conditions: read-out: Activity
C2C12 [13] = assay: Induction proliferation of mouse C2C12 cells assessed as increase in number of EdU-positive cells at 30 uM under normoglycemic condition by EdU-incorporation assay; format: functional, cell-based
C2C12 [14] = assay: Angiogenic activity in mouse C2C12 cells assessed as reversal of hyperglycemia-induced reduction in total cell number at 30 uM measured after 24 to 36 hrs by EdU-incorporation assay; format: functional, cell-based; conditions: time 24-36 hrs
[15] = Permeability coefficient across apical to basolateral side in human Caco-2 cells by HPLC-UV analysis
C2C12 [16] = assay: Reversal of hyperglycemia-induced PDGF-BB protein level reduction in mouse C2C12 cells measured at 30 uM by ELISA; format: functional, cell-based
[17] = Toxicity in diabetic HLI C57BL/6 mouse model assessed as spleen pathology at 30 mg/kg, IM administered by HE staining based assay; format: organism-based; conditions: in vivo
[18] = Water solubility of the compound by HPLC analysis
HUVEC [19] = assay: Angiogenesis activity in human HUVEC cells assessed as suppression of cell migration using conditioned medium of mouse C2C12 cells treated at 30 uM under hyperglycemic condition for 12 hrs followed by hypoxia for 24 hrs by crystal violet dye based transwell assay; format: functional; conditions: time 36.0 hrs
C2C12 [20] = assay: Upregulation of IGF protein expression in mouse C2C12 cells at 30 uM by Western blot analysis; format: functional, cell-based
[21] = Toxicity in diabetic HLI C57BL/6 mouse model assessed as effect on body weight at 15 to 100 mg/kg, im administered measured after 21 days; format: organism-based; conditions: in vivo, 504 h, dose 15-100 mg/kg, time 21 day
Mus musculus [22] = assay: Angiogenic activity in diabetic HLI C57BL/6 mouse model assessed as VEGF-A protein expression at 30 mg/kg, im administered for 21 days followed by surgery by Western blot analysis; format: functional, organism-based; conditions: time 21.0 day
HUVEC [23] = assay: Angiogenic activity in human HUVEC cells assessed as suppression of F-actin polymerization at 30 uM using conditioned medium of mouse C2C12 cells treated at 30 uM under hyperglycemic condition for 12 hrs followed by hypoxia for 12 hrs by phalloidin staining based confocal microscopy; format: functional, cell-based; conditions: time 24.0 hrs
MOVAS-1 = assay: Induction proliferation of mouse MOVAS-1 cells assessed as increase in number of EdU-positive cells using conditioned medium of mouse C2C12 cells treated at 30 uM under hyperglycemic condition for 12 hrs followed by hypoxia for 24 hrs by EdU-incorporation assay; format: functional; conditions: time 36 hrs
C2C12 [24] = assay: Apoptotic rate in mouse C2C12 cells with silenced HIF-1alpha assessed as early apoptotic cells at 30 uM by AnnexinV-FITC/PI staining based FACS analysis (reference value: 4.02 %); format: functional
C2C12 [25] = assay: Angiogenic activity in mouse C2C12 cells assessed as accumulation HIF-1alpha protein expression at 300 uM by Western blot analysis; format: functional, cell-based
[26] = Permeability coefficient across basolateral to apical side in human Caco-2 cells by HPLC-UV analysis
C2C12 [27] = assay: Effect on PHD2 mRNA expression in mouse C2C12 cells at 30 uM by qRT-PCR analysis; format: functional, cell-based
C2C12 [28] = assay: Angiogenesis activity in mouse C2C12 cells assessed as increase in cell migration at 30 uM under hyperglycemic condition for 12 hrs followed by hypoxia for 24 hrs presence of MeOE2 inhibitor by crystal violet dye based transwell assay; format: functional; conditions: time 36.0 hrs
C2C12 [29] = assay: Induction of proliferation of hyperglycemia-induced mouse C2C12 cell death assessed as increase in number of EdU-positive cells at 7.5 to 300 uM pretreated with compound under hyperglycemia condition for 12 hr followed by hypoxia for 24 hrs; format: functional, cell-based; conditions: dose 7.5-300 µM, time 36.0 hrs
C2C12 [30] = assay: Apoptotic rate in mouse C2C12 cells with silenced HIF-1alpha assessed as late apoptotic cells at 30 uM by AnnexinV-FITC/PI staining based FACS analysis (reference value: 9.62 %); format: functional
Mus musculus [31] = assay: Angiogenesis activity in nondiabetic HLI C57BL/6 mouse model assessed as as increase in blood perfusion recovery at 30 mg/kg, im administered for 14 days; format: functional, organism-based; conditions: time 14.0 day

## COc1ccc(Cc2cccc(O[C@@H]3O[C@H](CO)[C@@H](O)[C@H](O)[C@H]3O)c2)cc1
HUVEC [1]
  Activity: Active
[2]
  remaining at 0.5 h: 99%
C2C12 [3]
  Activity: Active
C2C12 [4]
  Activity: inactive
Mus musculus [5]
  Activity: Active
[6]
  Activity: Non-Toxic
C2C12 [7]
  Activity: 2.13%
[8]
  Activity: Non-Toxic
C2C12 [9]
  Activity: Active
C2C12 [10]
  Activity: 3.94%
C2C12 [11]
  Activity: Active
C2C12 [12]
  viability at 30 µM: 82%
C2C12 [13]
  Activity: Active
C2C12 [14]
  Activity: inactive
[15]
  Papp A→B: 1.04 ×10⁻⁶ cm/s
C2C12 [16]
  Activity: Active
[17]
  Activity: Non-Toxic
[18]
  solubility: 1910 µg/mL (≈ 5.07 mM)
HUVEC [19]
  Activity: Active
C2C12 [20]
  Activity: Active
[21]
  Activity: Non-Toxic
Mus musculus [22]
  Activity: Active
HUVEC [23]
  Activity: Active
MOVAS-1
  fold change (FC): 2
C2C12 [24]
  Activity: 3.18%
C2C12 [25]
  inhibition: Active
[26]
  Papp B→A: 1.11 ×10⁻⁶ cm/s
C2C12 [27]
  Activity: inactive
C2C12 [28]
  Activity: Active
C2C12 [29]
  Activity: Active
C2C12 [30]
  Activity: 14.63%
Mus musculus [31]
  Activity: Active
